Values quoted from earlier work as cited in publication PMC6241861 (International Journal of Nanomedicine, 2018).

Assays:
[1] = biological target: T1, human neutrophil elastase (Homo sapiens, UniProt P08246)
T1 sequence (P08246 30-267): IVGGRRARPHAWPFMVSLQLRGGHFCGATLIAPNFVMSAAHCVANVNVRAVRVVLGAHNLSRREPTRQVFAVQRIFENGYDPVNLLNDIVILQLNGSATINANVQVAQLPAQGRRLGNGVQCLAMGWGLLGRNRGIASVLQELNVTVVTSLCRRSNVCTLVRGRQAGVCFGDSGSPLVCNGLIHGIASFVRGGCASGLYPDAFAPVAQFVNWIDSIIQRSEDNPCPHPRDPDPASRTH

[2] = biological target: Pseudomonas aeruginosa elastase (Pseudomonas aeruginosa, UniProt P14756)
Sequence of Pseudomonas aeruginosa elastase (P14756 198-498): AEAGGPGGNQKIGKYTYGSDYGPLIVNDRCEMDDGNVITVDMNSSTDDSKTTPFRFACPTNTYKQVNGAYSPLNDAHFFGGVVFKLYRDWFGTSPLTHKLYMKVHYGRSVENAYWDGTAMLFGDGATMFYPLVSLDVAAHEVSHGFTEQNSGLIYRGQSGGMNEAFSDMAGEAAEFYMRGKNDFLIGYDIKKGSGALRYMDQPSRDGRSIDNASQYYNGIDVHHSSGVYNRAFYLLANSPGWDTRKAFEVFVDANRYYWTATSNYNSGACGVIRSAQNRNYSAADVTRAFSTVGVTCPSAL

## LL37
[1]
  Degradation by leukocyte elastase [HNE]: degraded
[2]
  Degradation by P. aeruginosa elastase [PE]: degraded
